This passage reports inhibition results from patent publication US11000515B2, “Compounds that interact with the Ras superfamily for the treatment of cancers, inflammatory diseases, rasopathies, and fibrotic disease” (Shy Therapeutics LLC, priority 2017, dated 2021).

The subject of experiment [1] is MAPK phosphorylation in the PANC-1 pancreatic cancer cell line. The experiment is described as follows: MAPK cell-based phosphorylation assay (cell-direct ELISA, EGF-stimulated PANC-1). The note with it: Homo sapiens; for inhibition at 30 µM: PANC-1, 6 hours incubation, EGF stimulation; for inhibition at 10 µM: tested at 10 μM (*), PANC-1. As to the method:
Cell lines: Tumor-derived pancreatic cancer cell lines PANC-1 were purchased from ATCC and were maintained according to ATCC recommendation.
Method: Cells were plated at 7500 cells/well density in 96-wells plate, starved over night, and the small molecules to be tested were added to the cells in the final concentration of 30 μM with 0.3% DMSO for 6 hours incubation at 37° C. For IC50 value determination, serial dilutions of compounds were added to cells under the same conditions. Next, cells were stimulated with 1.5 ng/ml EGF for 15 min. followed by cell fixation with 4% Formaldehyde in PBS at RT for 20 min. Phosphorylation level of MAPK was determined by Cell-direct ELISA.
Cell-direct ELISA: For each well, cells were permeabilized with PBS-Triton 0.1%, quenched with H2O2 0.6% in PBS-Triton 0.1%, and probed with anti-phospho-MAPK antibodies (R&D Systems) followed by HRP-conjugated secondary antibody (Jackson Immunoresearch, West Grove, Pa.). Next, a solution 50 μM of the fluorescent substrate AmpliFlu Red (Sigma) was added and incubated at RT for 20 min. At the end of the incubation time, fluorescence was measured at 595 nm on a microplate reader (AF2200; Eppendorf, Inc., Hamburg, Germany).
(An ELISA detects its analyte on a solid surface through an enzyme-linked reagent.)

The subject of experiment [2] is MIA-PACA2 pancreatic cancer cell lines. The experiment is described as follows: Cell proliferation assay, MIA-PACA2 (CellTiter 96 AQueous One, 6 days). It counts as cell-based. The settings on record: Homo sapiens, MIA PaCa-2, 144 h. The protocol: (§1) Cell lines: Tumor-derived pancreatic cancer cell lines MIA-PACA2 were purchased from ATCC and grown in complete DMEM-High Glucose medium supplemented with penicillin (100 U/mL), streptomycin (100 μg/mL), and 10% heat-inactivated FBS at 37° C. in a humidified incubator with 5% CO2.
Method: Cells are plated at 1000 cells/well density in 96-wells plate, starved ON, and the next day tested small molecules are added to the cells in the final concentration of 30 μM with 0.3% DMSO 3 hours prior to 10% FBS addition. After serum addition cells are incubated for 6 days at 37° C. in a humidified incubator with 5% CO2. For IC50 value determination, serial dilutions of compounds were added to cells under the same conditions.
Assay: At the end of the incubation period, cell cultures are tested using the CellTiter 96® AQueous One Solution Cell Proliferation Assay kit (Promega Corporation, Madison, Wis.) according to the manufacturer specifications. Briefly, assay is performed by adding 20 μl of the CellTiter 96 Aqueous One Solution Reagent directly to culture wells, followed by for 1-4 hours incubation at 37° C. in a humidified incubator with 5% CO2. At the end of incubation time, absorbance at 492 nm is recorded with the 96-well plate reader Eppendorf AF2200, and degree of small molecule-dependent proliferation inhibition is calculated from raw data assuming No Serum cells value as 100%.

For experiment [3] the test system is unchanged. As to the kind of experiment: Cell proliferation assay, MIA-PACA2, alternate assay conditions (DAPI staining, 4 days). The settings on record: Homo sapiens, MIA PaCa-2, 96 h; tested at 10 μM (*), 4 days, alternate conditions. It counts as cell-based. The protocol:
as §1
Method: Cells are plated at 4000 cells/well density in 96-wells plate. The next day tested small molecules are added to the cells in the final concentration of 10 μM in the presence of 0.3% DMSO and 10% FBS. After small molecules addition, cells are incubated for 4 days at 37° C. in a humidified incubator with 5% CO2. For IC50 value determination, serial dilutions of compounds were added to cells under the same conditions.
Assay: At the end of the incubation period, cell cultures are fixed with a 50-50 mixture (v/v) acetone-methanol for 10 minutes at −20° C., followed by rehydration in PBS for 10 minutes at room temperature. After rehydration, cells are stained with DAPI (1 μg/ml) in PBS for 10 minutes at room temperature, followed by 3 washes with PBS. After staining, DAPI fluorescence is recorded (358 nm excitation/461 nm emission) with the 96-well plate reader Molecular Devices Spectramax M3; degree of small mole-cule-dependent proliferation inhibition is calculated from raw data assuming No Serum cells value as 100%.

In general, inhibition refers to the drop in the measured response relative to a control, in per cent. Higher therefore signals a strong effect.

In experiment [1], `Cc1nc(-c2ccccn2)nc(O)c1CCC(=O)Nc1ccc(C(C)C)cc1` displayed an inhibition at 30 µM of 1 to 25%. In turn, `COC(=O)c1cc(NCc2nc(CC(C)C)no2)ccc1Cl` had an inhibition at 30 µM in experiment [1] of 1 to 25%. Still for that read-out and setting: with `N#Cc1ccc(CC(=O)Nc2ccnc(-c3ccccn3)n2)cc1` the figure was 1 to 25%; with `COOCCCCNC(=O)c1csc2nc(-c3ccccn3)nc(N3CCOCC3)c12`, 1 to 25%.

For `Oc1nc(-c2ccccn2)nc2c(-c3ccccn3)csc12`, the inhibition at 10 µM in experiment [1] fell in the range of 76 to 100%. With `COc1ccc(CCC(=O)Nc2nc(-c3ccccn3)nc3sccc23)cn1`, in experiment [1], the inhibition at 10 µM lay within 76 to 100%. In turn, `Cn1ccnc1-c1nc(O)c2scc(-c3cccc(OC(F)(F)F)c3)c2n1` came in with an inhibition at 10 µM in experiment [1] of 25 to 50%. As to `O=C(Nc1nnc(-c2ccccn2)[nH]1)c1ccc(Cc2ccccc2)nc1`, in experiment [2], the inhibition at 30 µM lay in the range of 51 to 75%. Consider `OCCn1ncc2c1CCCC2Nc1nc(-c2ccccn2)nc2scc(-c3ccccc3)c12` (centres unmarked), for which the inhibition at 30 µM in experiment [2] was 76 to 100%.

Turning to `CN(CCCc1n[nH]c(N)c1C#N)c1nc(-c2ccccn2)nc2sc(-c3ccccc3)cc12`, the inhibition at 30 µM in experiment [2] was in the range of 76 to 100%. Turning to `NC(=O)C1CCN(c2nc(-c3ccccn3)nc3scc(-c4ccccc4)c23)CC1`, in experiment [2], the inhibition at 30 µM is 76 to 100%. Compound `COc1cnc(CN)[nH]c1=O` yielded an inhibition at 30 µM in experiment [2] of 51 to 75%. Compound `O=C(CCn1ccnc1)Nc1nc(-c2ccccn2)nc2sccc12` returned an inhibition at 30 µM in experiment [2] of 76 to 100%.

For the compound `Oc1cccc(-c2csc3c(O)nc(-c4ccccn4)nc23)n1`, the inhibition at 10 µM in experiment [3] lay within 76 to 100%.
